Measurements taken from US20050256092A1, “Antipsoriatic agent” (priority 2002, published 2005).
pIC50: −log10 of the molar value. Like-named read-outs stand apart in the source and are kept apart here.

How the values were obtained:
[1] = tested on: adult-human-derived keratinocytes; experiment: suppression of proliferation of cultured human keratinocytes ([3H]thymidine uptake); type: cell-based; conditions: for pIC50: [3H]thymidine uptake, cultured 3 days + 1 day, percentage of control, read-out: IC50 (mol/L) value, suppression of human keratinocyte proliferation
Protocol: The effect of suppressing the proliferation of cultured human keratinocytes by 2β-(3-hydroxypropyloxy)-1α,25-dihydroxyvitamin D3 (hereinafter referred to as “ED-71”) was investigated.
KGM-2 culture medium was added to each well of a 96-well plate (COSTAR 3595), and adult-human-derived keratinocytes (Clonetics) were seeded at a cell count of 1×10^3/well. Then, active vitamin D3 (1α,25-dihydroxyvitamin D3, produced by Solvay Pharmaceuticals) or ED-71 (produced by Chugai Seiyaku) was added to each well in a final concentration of 1×10^−10 mol/L, 1×10^−9 mol/L, 1×10^−8 mol/L, or 1×10^−7 mol/L. The cells were cultured in the KGM-2 culture medium at a cell concentration of 1×10^3/200 μl/well for 3 days at 37° C. in an atmosphere of 5% CO2 and 95% air. [^3H]thymidine was added in an amount of 7.4 kBq/well, and the cells were further cultured for 1 day. The culture medium was removed, and the cells were stripped off using 0.05% trypsin/EDTA (GIBCO BRL), and the amount of [^3H]thymidine taken up by the cells was measured with a liquid scintillation counter (1450 MICROBETA, Wallac). The cells cultured and treated in the same manner as described above, except for the addition of the active vitamin D3 or ED-71, were used as a control.
In FIG. 1, the [^3H]thymidine uptake into the cells treated with each drug is expressed as a percentage of the [^3H]thymidine uptake into the control cells.

[2] = tested on: epidermis of hairless mice; experiment: epidermis thickening in hairless mice, percutaneous administration; type: in vivo; conditions: single percutaneous dose, compared with active vitamin D3
From the text: (§1) The effect of ED-71 administered percutaneously and orally was investigated using hairless mice.
(§2) Percutaneous administration of a vitamin D3 derivative in hairless mice was reported to cause hyperplasia of the epidermis (British Journal of Dermatology 1995; 132; 841-852).

[3] = tested on: epidermis of hairless mice; experiment: epidermis thickening in hairless mice, oral administration; type: in vivo; conditions: administered orally for 4 days, compared with active vitamin D3
From the text: as §1, §2

Row | SMILES | human keratinocyte proliferation suppressing activity, relative value with respect to active vitamin D3 ([1]; (IC50 value of active vitamin D3)/(IC50 value of ED-71)) | pIC50 ([1]; Homo sapiens, Keratinocyte) | thickening of the epidermis [2] | thickening of the epidermis [3] | pIC50 [1]
1 | C=C1/C(=C\C=C2/CCC[C@@]3(C)C2CC[C@@H]3[C@H](C)CCCC(C)(C)O)C[C@@H](O)[C@@H](OCCCO)[C@@H]1O (stereo partly drawn) [ED-71, 2β-(3-hydroxypropyloxy)-1α,25-dihydroxyvitamin D3] | ≥ 305.23 | > 10.00 | thickened the epidermis in a lower dose than the dose of active vitamin D3 | thickened the epidermis in a lower dose than the dose of active vitamin D3 | –
2 | C=C1/C(=C\C=C2/CCC[C@]3(C)[C@@H]([C@H](C)CCCC(C)(C)O)CC[C@@H]23)C[C@@H](O)C[C@@H]1O [active vitamin D3, 1α,25-dihydroxyvitamin D3, reference compound] | – | – | – | – | 7.52
